Measurements published in patent US9034336B2, “Immunomodulators and immunomodulator conjugates” (Regents of the University of Minnesota, priority 2011, dated 2015).
Entries after “also recorded” stand apart in the source; their conditions may differ.

Legend:
Type in all cases: cell-based
[1] = system: human monocyte-derived dendritic cells (MoDC); assay: Human MoDC immunostaining and flow cytometric analysis (maturation, DC phenotype)
Protocol: (§1) 1. Dendritic cells were generated from peripheral blood monocytes as described (Brossart P, et al. Blood. 1998; 92: 4238-4247). In brief, CD14 positive monocytes were from a healthy human peripheral blood mononuclear cells (PBMC) obtained via isolation with Lymphocyte Separation Medium (Mediatech, Inc, Manassas, Va.) and after purification with CD14 microbeads from Miltenyi Biotec Inc (Aubun, Calif.). The CD14 positive monocytes (>95% CD14) were cultured into immature monocyte-derived dendritic cells (MoDC) by further 6 day culture with GM-CSF (100 ng/ml) and IL-4 (100 ng/ml)(R&D, MN). 2. 0.1 million of MoDC were plated into 96-well plate and stimulated for 48 hours with 5 different concentration of following TLRs: 412, 420, 421, 414 and 415 at concentration of 0, 0.325, 1.3, 5.2 and 20.8 nmol/ml in triplicate. In other experiments (FIGS. 34 and 35), fresh PBMC (not DC) were used as the responder cells to the indicated compounds and cytokines levels were measured by bead array according to the manufacture's protocol (BD biosciences).
48 hours after stimulation, the cells were stained with anti-HLA-DR, CD11c, CD-86, CD80, CD83, CD8a, CD123 and relevant isotype control (eBioscience, San Diego, Calif.). The cells were loaded on FACS-canto II and analyzed with FACSDiva and Flowjo

[2] = system: human monocyte-derived dendritic cells (MoDC); assay: Human MoDC inflammatory cytokines by cytometric bead assay
Protocol: as §1
The supernatant were harvested 48 hours after stimulation with TLRs. Inflammatory cytokines level was identified with CBA, following the producer's instruction (BD, San Jose, Calif.)

human TLR7 = biological target: T1, human TLR7 (Homo sapiens, UniProt Q9NYK1); assay: TLR7/8-NF-κB reporter assay (HEK-TLR7, SEAP); conditions: HEK-TLR7 cells, 24 hrs, read-out: EC50 of TLR7 (mean ± SD)
T1 construct: host or cells: HEK (HEK293) cells with NF-kB-responsive SEAP reporter
T1 sequence (Q9NYK1 27-1049): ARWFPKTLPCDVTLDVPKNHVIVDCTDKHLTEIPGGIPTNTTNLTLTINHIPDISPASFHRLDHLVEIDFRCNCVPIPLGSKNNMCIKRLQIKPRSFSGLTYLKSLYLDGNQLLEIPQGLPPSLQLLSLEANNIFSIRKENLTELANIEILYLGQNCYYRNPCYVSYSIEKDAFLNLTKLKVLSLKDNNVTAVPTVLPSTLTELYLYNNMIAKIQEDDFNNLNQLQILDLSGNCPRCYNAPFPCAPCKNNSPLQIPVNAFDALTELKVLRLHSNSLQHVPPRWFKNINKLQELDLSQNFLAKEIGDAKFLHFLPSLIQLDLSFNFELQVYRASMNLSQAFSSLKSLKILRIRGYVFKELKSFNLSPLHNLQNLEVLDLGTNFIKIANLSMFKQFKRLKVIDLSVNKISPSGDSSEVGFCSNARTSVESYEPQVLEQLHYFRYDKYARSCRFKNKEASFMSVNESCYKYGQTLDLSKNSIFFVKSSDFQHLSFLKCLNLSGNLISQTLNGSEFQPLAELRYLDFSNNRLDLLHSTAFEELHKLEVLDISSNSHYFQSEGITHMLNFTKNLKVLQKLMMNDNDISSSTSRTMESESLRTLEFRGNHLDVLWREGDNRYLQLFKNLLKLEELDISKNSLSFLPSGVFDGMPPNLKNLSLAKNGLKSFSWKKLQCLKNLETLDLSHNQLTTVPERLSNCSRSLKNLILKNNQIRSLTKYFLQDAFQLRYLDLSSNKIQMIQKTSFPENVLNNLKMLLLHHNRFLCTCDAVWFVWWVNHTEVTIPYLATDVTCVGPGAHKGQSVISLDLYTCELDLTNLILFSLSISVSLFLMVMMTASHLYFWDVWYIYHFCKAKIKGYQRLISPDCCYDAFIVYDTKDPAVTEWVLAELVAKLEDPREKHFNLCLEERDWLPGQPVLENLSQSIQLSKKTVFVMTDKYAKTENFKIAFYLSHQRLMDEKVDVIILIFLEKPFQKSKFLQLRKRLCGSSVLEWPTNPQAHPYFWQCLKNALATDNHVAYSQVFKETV
Protocol: Human embryonic kidney (HEK) cells that were stably transfected with human TLR7 or TLR8 and an NF-κB—responsive secreted embryonic alkaline phosphatase (SEAP) gene (HEK-TLR7/8) were purchased from InvivoGen (San Diego, Calif.). The procedure used to measure TLR7 or TLR8 agonist activity was conducted as described by Hood et al. (Hood J. D, et al., Human Vaccines, 2010, 6, 4, 322-335). Briefly, HEK-TLR7/8 cells were stimulated with 3.3 or 30 μM of compound in a 96-well plate in DMEM containing 10% FBS and 0.01% Normocin (InvivoGen) for 24 hrs. Twenty microliters of the supernatant from each well was incubated with Quanti-blue substrate solution (InvivoGen) at 37° C. for 1 hour and absorbance was read at 650 nm using a Synergy plate reader (Biotek, Winooski, Vt.).

EC50 (human TLR7): 1.52 ± 0.07 µM
SMILES: CCCCc1nc2c(N)nc3cc(C(=O)OC)ccc3c2n1CC(C)(C)O [Compound 420, 4-Amino-2-butyl-1-(2-hydroxy-2-methylpropyl)-7-methoxycarbonyl-1H-imidazo[4,5-c]quinoline]
differentiation of myeloid DC into CD123+ plasmacytoid DC ([1]; human MoDC (FIG. 4)): did not | MoDC maturation (raising CD86 co-stimulator level and CD83) ([1]; human MoDC, 48 hours after stimulation): same efficiency as Resiquimod and significantly stronger than imiquimod | IL-1β induction / secretion ([2]; human MoDC (FIG. 11)): induction of IL-1β; also recorded: the only drug tested that caused appreciable IL-1b secretion | production of inflammatory cytokines ([2]; human MoDC, supernatant 48 hours after stimulation): higher production of “inflammatory cytokines”, compared to imiquimod (but less stronger than Resquimod)
